According to patent US9133181B2, “Substituted 6-(4-hydroxy-phenyl)-1H-pyrazolo[3,4-b]pyridine derivatives as kinase inhibitors” (SANOFI, priority 2012, dated 2015):

Molecular target: T1, human full-length recombinant PKC βII (Homo sapiens, UniProt P05771)
T1 construct: Active human full-length recombinant PKC βII; purchased Invitrogen GmbH, Darmstadt, Germany
Test: Determination of PKC βII inhibition (Caliper mobility shift kinase assay)
Type: biochemical
Conditions: final compound concentration 1.14 μM (±0.15 μM); 60 min incubation at 32° C.
In short: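 Compound was tested at a final 1.14 µM (±0.15 µM), with % inhibition derived from the product/(substrate+product) peak ratio on a Caliper mobility-shift read-out. Full-length PKC βII was activated by CaCl2, PS and DAG in pH 7.4 Hepes/MgCl2. Peptide and ATP were at 3 µM and 120 µM in the added mix. Incubation was 60 min at 32 °C.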

T1 sequence (P05771 1-673 isoform P05771-2): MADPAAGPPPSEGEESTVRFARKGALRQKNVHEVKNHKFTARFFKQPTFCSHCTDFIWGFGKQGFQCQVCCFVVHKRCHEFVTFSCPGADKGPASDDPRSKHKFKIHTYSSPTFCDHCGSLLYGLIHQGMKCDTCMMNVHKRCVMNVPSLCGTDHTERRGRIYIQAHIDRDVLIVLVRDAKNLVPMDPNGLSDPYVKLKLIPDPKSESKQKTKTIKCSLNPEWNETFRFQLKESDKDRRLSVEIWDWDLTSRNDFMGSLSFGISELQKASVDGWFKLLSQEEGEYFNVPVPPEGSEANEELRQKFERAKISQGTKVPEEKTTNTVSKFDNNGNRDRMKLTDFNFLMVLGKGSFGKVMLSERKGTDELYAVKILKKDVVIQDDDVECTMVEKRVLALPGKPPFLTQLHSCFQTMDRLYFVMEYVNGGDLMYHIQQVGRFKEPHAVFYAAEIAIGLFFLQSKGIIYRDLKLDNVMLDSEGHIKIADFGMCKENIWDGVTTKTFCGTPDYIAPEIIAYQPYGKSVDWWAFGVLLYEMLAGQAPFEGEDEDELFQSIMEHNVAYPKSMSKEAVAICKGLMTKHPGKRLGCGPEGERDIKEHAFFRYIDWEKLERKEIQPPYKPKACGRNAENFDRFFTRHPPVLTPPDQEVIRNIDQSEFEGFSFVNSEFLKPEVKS

Point of comparison: `Cc1n[nH]c2nc(-c3ccc(O)cc3F)cc(CN3C[C@@H](C)NCC34CCCC4)c12` [Example 128, 3-Fluoro-4-[3-methyl-4-((R)-8-methyl-6,9-diaza-spiro[4.5]dec-6-ylmethyl)-1H-pyrazolo[3,4-b]pyridin-6-yl]-phenol], inhibition at 1.14 µM 71%. Against it:
- Cc1n[nH]c2nc(-c3ccc(O)cc3F)cc(CN3CCNC[C@@H]3c3ccc(F)cc3)c12 [Example 105, 3-Fluoro-4-{4-[(S)-2-(4-fluoro-phenyl)-piperazin-1-ylmethyl]-3-methyl-1H-pyrazolo[3,4-b]pyridin-6-yl}-phenol] — higher, 100%
- Cc1n[nH]c2nc(-c3ccc(O)cc3F)cc(CN3CCNC[C@H]3c3ccc(F)cc3)c12 [Example 106, 3-Fluoro-4-{4-[(R)-2-(4-fluoro-phenyl)-piperazin-1-ylmethyl]-3-methyl-1H-pyrazolo[3,4-b]pyridin-6-yl}-phenol] — higher, 104%
- Cc1n[nH]c2nc(-c3ccc(O)cc3F)cc(CN3CCNC[C@@H]3C(F)(F)F)c12 [Example 107, 3-Fluoro-4-[3-methyl-4-((R)-2-trifluoromethyl-piperazin-1-ylmethyl)-1H-pyrazolo[3,4-b]pyridin-6-yl]-phenol] — higher, 101%
- Cc1n[nH]c2nc(-c3ccc(O)cc3F)cc(CN3CCNC[C@H]3C(F)(F)F)c12 [Example 108, 3-Fluoro-4-[3-methyl-4-((S)-2-trifluoromethyl-piperazin-1-ylmethyl)-1H-pyrazolo[3,4-b]pyridin-6-yl]-phenol] — higher, 102%
- Cc1n[nH]c2nc(-c3ccc(O)cc3F)cc(CN3CCNC[C@@H]3c3ccccc3)c12 [Example 109, 3-Fluoro-4-[3-methyl-4-((S)-2-phenyl-piperazin-1-ylmethyl)-1H-pyrazolo[3,4-b]pyridin-6-yl]-phenol] — higher, 91%
- Cc1n[nH]c2nc(-c3ccc(O)cc3F)cc(CN3CCNC[C@H]3c3ccccc3)c12 [Example 110, 3-Fluoro-4-[3-methyl-4-((R)-2-phenyl-piperazin-1-ylmethyl)-1H-pyrazolo[3,4-b]pyridin-6-yl]-phenol] — lower, 42%
- Cc1n[nH]c2nc(-c3ccc(O)cc3)cc(CN3C[C@H](C)NC[C@H]3c3ccccc3)c12 [Example 112, 4-[3-Methyl-4-((2R,5S)-5-methyl-2-phenyl-piperazin-1-ylmethyl)-1H-pyrazolo[3,4-b]pyridin-6-yl]-phenol] — higher, 85%
- Cc1n[nH]c2nc(-c3ccc(O)cc3)cc(CN3CCNC[C@@H]3c3ccc(C(F)(F)F)cc3)c12 [Example 113, 4-{3-Methyl-4-[(S)-2-(4-trifluoromethyl-phenyl)-piperazin-1-ylmethyl]-1H-pyrazolo[3,4-b]pyridin-6-yl}-phenol] — higher, 81%
- Cc1n[nH]c2nc(-c3ccc(O)cc3)cc(CN3CCNC[C@H]3c3ccc(C(F)(F)F)cc3)c12 [Example 114, 4-{3-Methyl-4-[(R)-2-(4-trifluoromethyl-phenyl)-piperazin-1-ylmethyl]-1H-pyrazolo[3,4-b]pyridin-6-yl}-phenol] — lower, 57%
- Cc1n[nH]c2nc(-c3ccc(O)cc3F)cc(CN3C[C@H](C)NCC3(C)C)c12 [Example 115, 3-Fluoro-4-[3-methyl-4-((S)-2,2,5-trimethyl-piperazin-1-ylmethyl)-1H-pyrazolo[3,4-b]pyridin-6-yl]-phenol] — higher, 94%
- Cc1n[nH]c2nc(-c3ccc(O)cc3F)cc(CN3C[C@@H](C)NCC3(C)C)c12 [Example 116, 3-Fluoro-4-[3-methyl-4-((R)-2,2,5-trimethyl-piperazin-1-ylmethyl)-1H-pyrazolo[3,4-b]pyridin-6-yl]-phenol] — higher, 95%
- Cc1n[nH]c2nc(-c3ccc(O)cc3F)cc(CN3CCNC[C@]3(C)c3ccccc3)c12 [Example 117, 3-Fluoro-4-[3-methyl-4-((S)-2-methyl-2-phenyl-piperazin-1-ylmethyl)-1H-pyrazolo[3,4-b]pyridin-6-yl]-phenol] — higher, 99%
- Cc1n[nH]c2nc(-c3ccc(O)cc3F)cc(CN3CCNC[C@@]3(C)c3ccccc3)c12 [Example 118, 3-Fluoro-4-[3-methyl-4-((R)-2-methyl-2-phenyl-piperazin-1-ylmethyl)-1H-pyrazolo[3,4-b]pyridin-6-yl]-phenol] — higher, 84%
- Cc1n[nH]c2nc(-c3ccc(O)cc3F)cc(CN3CCNC[C@@H]3c3cccc(F)c3)c12 [Example 119, 3-Fluoro-4-{4-[(S)-2-(3-fluoro-phenyl)-piperazin-1-ylmethyl]-3-methyl-1H-pyrazolo[3,4-b]pyridin-6-yl}-phenol] — higher, 86%
- Cc1n[nH]c2nc(-c3ccc(O)cc3F)cc(CN3CCNC[C@H]3c3cccc(F)c3)c12 [Example 120, 3-Fluoro-4-{4-[(R)-2-(3-fluoro-phenyl)-piperazin-1-ylmethyl]-3-methyl-1H-pyrazolo[3,4-b]pyridin-6-yl}-phenol] — higher, 102%
- CC[C@]1(C)CNC(C)(C)CN1Cc1cc(-c2ccc(O)cc2F)nc2[nH]nc(C)c12 [Example 121, 4-[4-((R)-2-Ethyl-2,5,5-trimethyl-piperazin-1-ylmethyl)-3-methyl-1H-pyrazolo[3,4-b]pyridin-6-yl]-3-fluoro-phenol] — higher, 100%
- CC[C@@]1(C)CNC(C)(C)CN1Cc1cc(-c2ccc(O)cc2F)nc2[nH]nc(C)c12 [Example 122, 4-[4-((S)-2-Ethyl-2,5,5-trimethyl-piperazin-1-ylmethyl)-3-methyl-1H-pyrazolo[3,4-b]pyridin-6-yl]-3-fluoro-phenol] — higher, 100%
- Cc1n[nH]c2nc(-c3ccc(O)cc3F)cc(CN3CC(C)(C)NC[C@H]3C)c12 [Example 123, 3-Fluoro-4-[3-methyl-4-((R)-2,5,5-trimethyl-piperazin-1-ylmethyl)-1H-pyrazolo[3,4-b]pyridin-6-yl]-phenol] — higher, 88%
- Cc1n[nH]c2nc(-c3ccc(O)cc3F)cc(CN3CC(C)(C)NC[C@@H]3C)c12 [Example 124, 3-Fluoro-4-[3-methyl-4-((S)-2,5,5-trimethyl-piperazin-1-ylmethyl)-1H-pyrazolo[3,4-b]pyridin-6-yl]-phenol] — higher, 83%
- Cc1n[nH]c2nc(-c3ccc(O)cc3F)cc(CN3CC(C)(C)NC[C@]3(C)C3CC3)c12 [Example 125, 4-[4-((S)-2-Cyclopropyl-2,5,5-trimethyl-piperazin-1-ylmethyl)-3-methyl-1H-pyrazolo[3,4-b]pyridin-6-yl]-3-fluoro-phenol] — higher, 87%
- Cc1n[nH]c2nc(-c3ccc(O)cc3F)cc(CN3CC(C)(C)NC[C@@]3(C)C3CC3)c12 [Example 126, 4-[4-((R)-2-Cyclopropyl-2,5,5-trimethyl-piperazin-1-ylmethyl)-3-methyl-1H-pyrazolo[3,4-b]pyridin-6-yl]-3-fluoro-phenol] — higher, 91%
- Cc1n[nH]c2nc(-c3ccc(O)cc3F)cc(CN3C[C@H](C)NCC34CCCC4)c12 [Example 127, 3-Fluoro-4-[3-methyl-4-((S)-8-methyl-6,9-diaza-spiro[4.5]dec-6-ylmethyl)-1H-pyrazolo[3,4-b]pyridin-6-yl]-phenol] — higher, 87%
- Cc1n[nH]c2nc(-c3ccc(O)cc3F)cc(CN3C[C@H](C(C)C)NCC3(C)C)c12 [Example 129, 3-Fluoro-4-[4-((S)-5-isopropyl-2,2-dimethyl-piperazin-1-ylmethyl)-3-methyl-1H-pyrazolo[3,4-b]pyridin-6-yl]-phenol] — higher, 97%
- Cc1n[nH]c2nc(-c3ccc(O)cc3F)cc(CN3C[C@@H](C(C)C)NCC3(C)C)c12 [Example 130, 3-Fluoro-4-[4-((R)-5-isopropyl-2,2-dimethyl-piperazin-1-ylmethyl)-3-methyl-1H-pyrazolo[3,4-b]pyridin-6-yl]-phenol] — higher, 98%
- Cc1n[nH]c2nc(-c3ccc(O)cc3)cc(CN3C[C@H](C)NCC3(C)C)c12 [Example 131, 4-[3-Methyl-4-((S)-2,2,5-trimethyl-piperazin-1-ylmethyl)-1H-pyrazolo[3,4-b]pyridin-6-yl]-phenol] — higher, 103%
- Cc1n[nH]c2nc(-c3ccc(O)cc3)cc(CN3C[C@@H](C)NCC3(C)C)c12 [Example 132, 4-[3-Methyl-4-((R)-2,2,5-trimethyl-piperazin-1-ylmethyl)-1H-pyrazolo[3,4-b]pyridin-6-yl]-phenol] — higher, 97%
- Cc1n[nH]c2nc(-c3ccc(O)cc3F)cc(CN3CC(C)(C)NC[C@@H]3C(C)C)c12 [Example 133, 3-Fluoro-4-[4-((S)-2-isopropyl-5,5-dimethyl-piperazin-1-ylmethyl)-3-methyl-1H-pyrazolo[3,4-b]pyridin-6-yl]-phenol] — higher, 103%
- Cc1n[nH]c2nc(-c3ccc(O)cc3F)cc(CN3CC(C)(C)NC[C@H]3C(C)C)c12 [Example 134, 3-Fluoro-4-[4-((R)-2-isopropyl-5,5-dimethyl-piperazin-1-ylmethyl)-3-methyl-1H-pyrazolo[3,4-b]pyridin-6-yl]-phenol] — higher, 102%
- CC[C@]1(C)CN(Cc2cc(-c3ccc(O)cc3F)nc3[nH]nc(C)c23)C(C)(C)CN1 [Example 135, 4-[4-((R)-5-Ethyl-2,2,5-trimethyl-piperazin-1-ylmethyl)-3-methyl-1H-pyrazolo[3,4-b]pyridin-6-yl]-3-fluoro-phenol] — higher, 106%
- CC[C@@]1(C)CN(Cc2cc(-c3ccc(O)cc3F)nc3[nH]nc(C)c23)C(C)(C)CN1 [Example 136, 4-[4-((S)-5-Ethyl-2,2,5-trimethyl-piperazin-1-ylmethyl)-3-methyl-1H-pyrazolo[3,4-b]pyridin-6-yl]-3-fluoro-phenol] — higher, 104%

`Cc1n[nH]c2nc(-c3ccc(O)cc3)cc(CN3C[C@@H](C)NC[C@@H]3c3ccccc3)c12` [Example 111, 4-[3-Methyl-4-((2S,5R)-5-methyl-2-phenyl-piperazin-1-ylmethyl)-1H-pyrazolo[3,4-b]pyridin-6-yl]-phenol] was tested, and the “% Inhibition” value was 88%.
